Data as given in paper PMC7026418, “The kinase polypharmacology landscape of clinical PARP inhibitors” (Scientific Reports, 2020).
Like-named read-outs stand apart in the source and are kept apart here.

Key:
Experiment in all cases: biochemical
MST2 = molecular target: T1, MST2 (Homo sapiens, UniProt Q13188); parameters: DiscoveRx KINOMEscan active site-directed competition binding; percent of control kinase bound to immobilised ligand
T1 construct: gene STK3
T1 sequence (Q13188 1-491): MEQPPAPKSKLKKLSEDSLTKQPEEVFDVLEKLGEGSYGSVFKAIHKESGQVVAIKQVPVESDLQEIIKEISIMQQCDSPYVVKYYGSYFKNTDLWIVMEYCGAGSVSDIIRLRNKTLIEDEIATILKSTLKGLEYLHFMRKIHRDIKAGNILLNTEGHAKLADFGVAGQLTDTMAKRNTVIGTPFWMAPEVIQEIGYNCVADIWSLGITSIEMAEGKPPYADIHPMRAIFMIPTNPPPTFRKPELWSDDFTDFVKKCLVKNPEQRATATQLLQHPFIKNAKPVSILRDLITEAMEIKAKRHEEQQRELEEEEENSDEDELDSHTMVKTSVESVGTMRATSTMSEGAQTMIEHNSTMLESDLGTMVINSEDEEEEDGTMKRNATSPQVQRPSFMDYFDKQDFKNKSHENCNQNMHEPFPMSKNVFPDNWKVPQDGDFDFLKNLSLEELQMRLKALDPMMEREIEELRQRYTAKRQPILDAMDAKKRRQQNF

CDK4-cyclinD3 [1] = molecular target: T2, CDK4-cyclinD3 (Homo sapiens, UniProt P11802); parameters: cyclinD3; DiscoveRx KINOMEscan active site-directed competition binding; percent of control kinase bound to immobilised ligand
HASPIN = molecular target: T3, HASPIN (Homo sapiens, UniProt Q8TF76); parameters: Reaction Biology HotSpot radiometric 33P-ATP catalytic assay at Km ATP; percent inhibition versus DMSO, mean n=2; details: Km ATP
T3 sequence (Q8TF76 1-798): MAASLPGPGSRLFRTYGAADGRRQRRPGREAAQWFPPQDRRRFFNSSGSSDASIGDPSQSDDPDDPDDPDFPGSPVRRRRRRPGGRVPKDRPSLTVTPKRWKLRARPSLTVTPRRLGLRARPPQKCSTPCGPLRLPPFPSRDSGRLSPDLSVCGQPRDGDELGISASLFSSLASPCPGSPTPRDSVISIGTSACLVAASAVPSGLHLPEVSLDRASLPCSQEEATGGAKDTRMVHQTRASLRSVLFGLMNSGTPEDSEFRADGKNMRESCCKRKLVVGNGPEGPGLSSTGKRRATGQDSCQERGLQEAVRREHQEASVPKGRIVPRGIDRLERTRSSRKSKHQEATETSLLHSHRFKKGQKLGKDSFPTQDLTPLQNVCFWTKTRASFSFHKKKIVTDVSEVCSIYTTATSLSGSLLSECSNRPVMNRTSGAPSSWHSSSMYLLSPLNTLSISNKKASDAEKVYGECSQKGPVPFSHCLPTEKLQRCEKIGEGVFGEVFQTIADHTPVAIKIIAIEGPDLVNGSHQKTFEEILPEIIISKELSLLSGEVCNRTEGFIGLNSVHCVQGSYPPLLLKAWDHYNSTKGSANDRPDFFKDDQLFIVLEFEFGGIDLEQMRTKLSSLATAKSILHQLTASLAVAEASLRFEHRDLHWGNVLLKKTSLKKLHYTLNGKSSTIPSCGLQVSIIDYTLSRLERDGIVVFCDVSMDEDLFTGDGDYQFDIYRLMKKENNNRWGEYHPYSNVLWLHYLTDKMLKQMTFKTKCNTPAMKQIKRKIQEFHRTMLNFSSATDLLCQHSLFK
From the text: (§1) Unreacted phosphate is removed via washing the filters.

HIPK3 = HIPK3 (Homo sapiens, UniProt Q9H422); parameters: Reaction Biology HotSpot radiometric 33P-ATP catalytic assay at Km ATP; percent inhibition versus DMSO, mean n=2; details: Km ATP
From the text: as §1

PIM2 = PIM2 (Homo sapiens, UniProt Q9P1W9); parameters: Reaction Biology HotSpot radiometric 33P-ATP catalytic assay at Km ATP; percent inhibition versus DMSO, mean n=2; details: Km ATP
From the text: as §1

HIPK2 = HIPK2 (Homo sapiens, UniProt Q9H2X6); parameters: Reaction Biology HotSpot radiometric 33P-ATP catalytic assay at Km ATP; percent inhibition versus DMSO, mean n=2; details: Km ATP
From the text: as §1

CIT = CIT (Homo sapiens, UniProt O14578); parameters: Reaction Biology HotSpot radiometric 33P-ATP catalytic assay at Km ATP; percent inhibition versus DMSO, mean n=2; details: Km ATP
From the text: as §1

CSNK2A1 = CSNK2A1 (Homo sapiens, UniProt P68400); parameters: Reaction Biology HotSpot radiometric 33P-ATP catalytic assay at Km ATP; percent inhibition versus DMSO, mean n=2; details: Km ATP
From the text: as §1

CSNK2A2 = CSNK2A2 (Homo sapiens, UniProt P19784); parameters: Reaction Biology HotSpot radiometric 33P-ATP catalytic assay at Km ATP; percent inhibition versus DMSO, mean n=2; details: Km ATP
From the text: as §1

STK17A = STK17A (Homo sapiens, UniProt Q9UEE5); parameters: Reaction Biology HotSpot radiometric 33P-ATP catalytic assay at Km ATP; percent inhibition versus DMSO, mean n=2; details: Km ATP
From the text: as §1

CDK4-cyclinD3 [2] = molecular target: T2, CDK4-cyclinD3; parameters: Reaction Biology HotSpot radiometric 33P-ATP catalytic assay at Km ATP; percent inhibition versus DMSO, mean n=2; details: Km ATP
From the text: as §1

HIPK1 = HIPK1 (Homo sapiens, UniProt Q86Z02); parameters: Reaction Biology HotSpot radiometric 33P-ATP catalytic assay at Km ATP; percent inhibition versus DMSO, mean n=2; details: Km ATP
From the text: as §1

[3] = read-out: Niraparib (MK-4827) / %Ctrl @ 10000nM
[4] = read-out: Olaparib / %Ctrl @ 10000nM
[5] = read-out: Rucaparib / %Ctrl @ 10000nM, binding competition, % of control
[6] = read-out: Talazoparib (BMN 673) / %Ctrl @ 10000nM

T2 sequence (P11802 whole entry): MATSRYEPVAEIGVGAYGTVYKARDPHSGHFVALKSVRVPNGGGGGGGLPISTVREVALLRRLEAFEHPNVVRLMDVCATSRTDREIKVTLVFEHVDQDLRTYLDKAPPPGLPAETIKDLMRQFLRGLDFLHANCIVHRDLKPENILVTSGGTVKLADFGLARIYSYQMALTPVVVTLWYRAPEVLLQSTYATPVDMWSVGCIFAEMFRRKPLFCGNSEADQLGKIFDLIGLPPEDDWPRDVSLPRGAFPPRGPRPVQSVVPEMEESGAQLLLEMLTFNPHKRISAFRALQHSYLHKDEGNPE
T2 sequence (P30281 whole entry partner): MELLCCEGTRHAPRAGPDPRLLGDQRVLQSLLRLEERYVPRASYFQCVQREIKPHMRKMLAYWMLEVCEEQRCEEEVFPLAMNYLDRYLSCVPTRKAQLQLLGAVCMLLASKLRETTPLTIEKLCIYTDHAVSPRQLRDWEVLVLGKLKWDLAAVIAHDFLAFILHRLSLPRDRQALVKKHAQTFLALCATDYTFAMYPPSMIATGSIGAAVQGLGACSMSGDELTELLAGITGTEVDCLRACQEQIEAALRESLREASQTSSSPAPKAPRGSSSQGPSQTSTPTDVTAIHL
Sequence of HIPK2 (Q9H2X6 whole entry): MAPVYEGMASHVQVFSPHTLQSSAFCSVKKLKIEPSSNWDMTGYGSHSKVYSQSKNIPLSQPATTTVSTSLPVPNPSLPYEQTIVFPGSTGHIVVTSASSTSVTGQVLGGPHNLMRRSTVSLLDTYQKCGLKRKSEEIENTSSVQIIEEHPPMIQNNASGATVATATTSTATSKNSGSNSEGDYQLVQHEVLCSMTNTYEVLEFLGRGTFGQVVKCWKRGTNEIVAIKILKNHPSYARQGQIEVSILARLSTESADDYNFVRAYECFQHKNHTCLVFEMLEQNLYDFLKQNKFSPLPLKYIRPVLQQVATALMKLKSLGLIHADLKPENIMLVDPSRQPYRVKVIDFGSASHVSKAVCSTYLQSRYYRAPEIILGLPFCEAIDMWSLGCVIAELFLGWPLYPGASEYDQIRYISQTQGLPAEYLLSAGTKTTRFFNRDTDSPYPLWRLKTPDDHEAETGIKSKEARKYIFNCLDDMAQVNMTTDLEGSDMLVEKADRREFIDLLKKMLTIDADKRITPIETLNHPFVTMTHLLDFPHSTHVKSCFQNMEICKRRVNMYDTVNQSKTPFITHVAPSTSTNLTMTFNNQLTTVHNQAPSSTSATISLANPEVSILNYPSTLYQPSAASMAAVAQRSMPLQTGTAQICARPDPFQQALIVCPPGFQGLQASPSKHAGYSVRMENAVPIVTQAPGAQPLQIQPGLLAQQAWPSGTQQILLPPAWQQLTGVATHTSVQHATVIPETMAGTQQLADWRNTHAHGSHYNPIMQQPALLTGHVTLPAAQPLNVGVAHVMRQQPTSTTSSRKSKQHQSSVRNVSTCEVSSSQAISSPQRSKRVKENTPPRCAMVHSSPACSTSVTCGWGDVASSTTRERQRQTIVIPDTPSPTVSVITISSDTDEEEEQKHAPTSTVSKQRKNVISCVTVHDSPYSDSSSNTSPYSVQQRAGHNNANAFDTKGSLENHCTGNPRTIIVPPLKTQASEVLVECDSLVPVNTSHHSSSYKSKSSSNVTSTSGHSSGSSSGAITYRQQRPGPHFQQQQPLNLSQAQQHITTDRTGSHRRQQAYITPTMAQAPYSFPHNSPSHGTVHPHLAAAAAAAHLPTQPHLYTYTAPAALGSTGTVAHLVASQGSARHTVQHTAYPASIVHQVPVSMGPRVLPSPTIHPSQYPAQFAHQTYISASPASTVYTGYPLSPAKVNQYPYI
Sequence of HIPK3 (Q9H422 whole entry): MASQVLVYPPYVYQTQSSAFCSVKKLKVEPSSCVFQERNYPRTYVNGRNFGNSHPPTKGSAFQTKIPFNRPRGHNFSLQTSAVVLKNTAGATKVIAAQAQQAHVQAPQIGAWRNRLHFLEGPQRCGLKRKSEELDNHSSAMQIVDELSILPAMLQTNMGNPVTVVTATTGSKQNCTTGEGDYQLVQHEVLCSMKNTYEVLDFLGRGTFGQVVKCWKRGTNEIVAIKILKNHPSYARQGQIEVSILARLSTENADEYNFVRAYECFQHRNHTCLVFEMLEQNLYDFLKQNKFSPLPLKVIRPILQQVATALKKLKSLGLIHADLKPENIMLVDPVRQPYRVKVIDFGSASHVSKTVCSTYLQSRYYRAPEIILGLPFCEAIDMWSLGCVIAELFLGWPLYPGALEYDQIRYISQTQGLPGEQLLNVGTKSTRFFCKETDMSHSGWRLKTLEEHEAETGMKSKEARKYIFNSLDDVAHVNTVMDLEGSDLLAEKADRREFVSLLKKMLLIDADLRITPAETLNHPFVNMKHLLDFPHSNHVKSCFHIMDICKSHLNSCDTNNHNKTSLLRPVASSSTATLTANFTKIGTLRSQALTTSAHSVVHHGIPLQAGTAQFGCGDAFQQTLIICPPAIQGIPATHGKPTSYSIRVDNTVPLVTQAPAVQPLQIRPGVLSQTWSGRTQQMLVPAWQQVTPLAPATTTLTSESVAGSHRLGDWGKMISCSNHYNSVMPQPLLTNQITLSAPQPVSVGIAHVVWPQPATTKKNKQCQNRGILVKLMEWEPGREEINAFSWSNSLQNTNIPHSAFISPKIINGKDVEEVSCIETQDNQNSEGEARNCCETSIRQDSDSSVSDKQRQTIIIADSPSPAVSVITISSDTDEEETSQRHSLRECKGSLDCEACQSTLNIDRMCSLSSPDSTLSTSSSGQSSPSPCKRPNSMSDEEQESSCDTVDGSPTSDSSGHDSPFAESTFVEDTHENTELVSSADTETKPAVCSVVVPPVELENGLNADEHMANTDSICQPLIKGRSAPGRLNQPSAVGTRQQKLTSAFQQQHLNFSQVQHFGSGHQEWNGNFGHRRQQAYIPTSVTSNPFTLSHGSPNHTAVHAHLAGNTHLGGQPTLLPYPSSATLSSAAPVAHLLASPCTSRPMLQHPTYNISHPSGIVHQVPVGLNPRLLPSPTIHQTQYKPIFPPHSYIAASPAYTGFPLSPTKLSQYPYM
Sequence of CSNK2A2 (P19784 whole entry): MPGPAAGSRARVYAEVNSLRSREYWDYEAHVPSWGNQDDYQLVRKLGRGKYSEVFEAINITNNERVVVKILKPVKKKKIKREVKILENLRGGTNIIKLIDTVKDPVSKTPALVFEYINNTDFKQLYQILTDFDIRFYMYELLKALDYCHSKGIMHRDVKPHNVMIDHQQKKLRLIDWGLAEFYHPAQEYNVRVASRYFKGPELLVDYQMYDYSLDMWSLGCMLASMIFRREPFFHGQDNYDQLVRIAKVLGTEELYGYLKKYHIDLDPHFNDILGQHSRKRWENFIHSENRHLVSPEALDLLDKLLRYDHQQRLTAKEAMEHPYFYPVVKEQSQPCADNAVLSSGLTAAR
Sequence of CSNK2A1 (P68400 whole entry): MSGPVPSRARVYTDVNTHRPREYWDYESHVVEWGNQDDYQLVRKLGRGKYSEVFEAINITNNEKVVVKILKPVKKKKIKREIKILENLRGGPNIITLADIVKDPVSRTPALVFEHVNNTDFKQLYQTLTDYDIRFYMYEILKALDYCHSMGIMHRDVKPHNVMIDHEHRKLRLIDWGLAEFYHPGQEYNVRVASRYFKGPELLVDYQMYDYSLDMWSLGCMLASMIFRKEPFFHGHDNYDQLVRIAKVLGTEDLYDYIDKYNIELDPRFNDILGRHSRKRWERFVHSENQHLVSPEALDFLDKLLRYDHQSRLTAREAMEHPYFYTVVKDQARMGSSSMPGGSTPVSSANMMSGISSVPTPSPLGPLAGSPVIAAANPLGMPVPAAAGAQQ
Sequence of STK17A (Q9UEE5 whole entry): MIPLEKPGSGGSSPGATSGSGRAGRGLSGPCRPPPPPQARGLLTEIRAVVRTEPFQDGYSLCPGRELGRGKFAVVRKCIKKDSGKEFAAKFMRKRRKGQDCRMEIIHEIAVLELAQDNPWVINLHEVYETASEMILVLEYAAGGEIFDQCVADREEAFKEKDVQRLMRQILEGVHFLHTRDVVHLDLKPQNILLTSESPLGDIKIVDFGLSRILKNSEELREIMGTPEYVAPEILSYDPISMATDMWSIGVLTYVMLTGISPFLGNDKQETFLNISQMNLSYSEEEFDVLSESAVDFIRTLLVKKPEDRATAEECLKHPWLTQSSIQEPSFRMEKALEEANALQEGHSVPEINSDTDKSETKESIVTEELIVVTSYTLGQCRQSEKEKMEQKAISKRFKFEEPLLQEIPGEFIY
Sequence of PIM2 (Q9P1W9 whole entry): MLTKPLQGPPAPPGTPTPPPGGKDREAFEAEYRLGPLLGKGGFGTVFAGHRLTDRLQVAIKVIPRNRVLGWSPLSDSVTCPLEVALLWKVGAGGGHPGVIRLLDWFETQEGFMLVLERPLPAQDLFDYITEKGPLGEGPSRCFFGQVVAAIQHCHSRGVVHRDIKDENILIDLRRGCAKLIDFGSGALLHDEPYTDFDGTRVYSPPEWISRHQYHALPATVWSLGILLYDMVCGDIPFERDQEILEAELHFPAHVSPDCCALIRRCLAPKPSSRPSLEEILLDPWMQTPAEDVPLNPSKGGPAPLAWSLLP

Row | SMILES | inhibition at 1 µM (HASPIN) [%] | inhibition at 1 µM (HIPK3) [%] | inhibition at 1 µM (HIPK2) [%] | inhibition at 1 µM (CIT) [%] | inhibition at 1 µM (CSNK2A1) [%] | inhibition at 1 µM (CSNK2A2) [%] | also measured
1 | NC(=O)c1cccc2cn(-c3ccc([C@@H]4CCCNC4)cc3)nc12 [Niraparib] | 10 | 5 | 23 | 10 | 12 | -1 | percent of control binding at 10 µM (MST2; [3]): 100%; percent of control binding at 10 µM (CDK4-cyclinD3 [1]; [3]): 38%; inhibition at 1 µM (PIM2): -5%
2 | O=C(c1cc(Cc2n[nH]c(=O)c3ccccc23)ccc1F)N1CCN(C(=O)C2CC2)CC1 [Olaparib] |  |  |  |  |  |  | percent of control binding at 10 µM (MST2; [4]): 96%; percent of control binding at 10 µM (CDK4-cyclinD3 [1]; [4]): 95%
3 | CNCc1ccc(-c2[nH]c3cc(F)cc4c3c2CCNC4=O)cc1 [Rucaparib] | -6 | -12 | -6 | 15 | 21 | 17 | percent of control binding at 10 µM (MST2; [5]): 76%; percent of control binding at 10 µM (CDK4-cyclinD3 [1]; [5]): 12%; inhibition at 1 µM (STK17A): -6%; inhibition at 1 µM (CDK4-cyclinD3 [2]): 10%; inhibition at 1 µM (HIPK1): -16%
4 | Cn1ncnc1[C@H]1c2n[nH]c(=O)c3cc(F)cc(c23)N[C@@H]1c1ccc(F)cc1 [Talazoparib] |  |  |  |  |  |  | percent of control binding at 10 µM (MST2; [6]): 100%; percent of control binding at 10 µM (CDK4-cyclinD3 [1]; [6]): 99%
